Test results reported in patent publication US20260159510A1, “HETEROCYCLIC COMPOUND, PREPARATION METHOD THEREFOR AND USE THEREOF” (GUANGZHOU DAGUANG PHARMACEUTICAL CO., LTD., priority 2022, published 2026).
Marks after values point to notes of the source that are not given here.

Legend:
Type in all cases: in vivo, SD rats
[1] = system: rat models with focal cerebral ischemia-reperfusion (tMCAO); assay: Cerebral blood flow in tMCAO model rats; settings: x ± s; for Cerebral blood flow 24 h after last administration / Cerebral blood flow improvement percentage / Recovery percentage of cerebral blood flow 24 h after last administration: 24 h after last of 3 administrations, 3×10^−5 mol/kg; for Cerebral blood flow before administration / Decrease percentage of cerebral blood flow before administration: after ischemia, before first administration; for Cerebral blood flow before ischemia: baseline before surgery, before any administration
Experimental: (§1) Rat models with focal cerebral ischemia-reperfusion (tMCAO) were prepared by using a suture-occluded method, and therapeutic effects of the test drugs on the tMCAO model rats were investigated.
(§2) A specific modeling method for the rat models with focal cerebral ischemia-reperfusion (tMCAO) is as follows. At 12 h before surgery, the rats were fed at about 30 g/piece. After induced anesthesia with 3-4% isoflurane and maintained anesthesia with 1.5-2.5% isoflurane were performed, the rats were placed at supine positions on an operating table at a constant temperature of 37° C. The skin in middle lines of necks was cut, subcutaneous tissues and muscles were bluntly separated, and common carotid arteries on right sides, internal carotid arteries and external carotid arteries were separated. Two ligation threads were allowed to penetrate through the external carotid arteries to ligate distal ends, an artery clamp was placed at the common carotid arteries and the internal carotid arteries, respectively, small incisions were made at 45° diagonally on the external carotid arteries at about 4 mm away from bifurcations of the common carotid arteries, and suitable suture occlusions were inserted to gently ligate proximal ends. The external carotid arteries were cut, directions and angles of the suture occlusions were adjusted, the suture occlusions were gently pushed and inserted into the internal carotid arteries, and then the artery clamps were released. The suture occlusions were continuously inserted until black dot marks of the suture occlusions reached junctions of the internal carotid arteries and the common carotid arteries at a length of about 18-20 mm. The proximal ends of the external carotid arteries were tightened, the suture occlusions were fixed, the skin was sutured after it was confirmed that there was no bleeding, the body temperature of the rats was maintained, and meloxicam as an analgesic drug was injected subcutaneously at 1 mg/kg.
(§3) At 2 h after ischemia, induced anesthesia with 3-4% isoflurane and maintained anesthesia with 1.5-2.5% isoflurane were performed, the skin sutures were cut, the ligation threads at the proximal ends of the external carotid arteries were opened, the suture occlusions were taken out, reperfusion was performed, ligation was performed again, and the skin was sutured after it was confirmed that there was no bleeding. In a sham-operated control group, other steps were the same as above except that the suture occlusions were inserted and pulled out immediately and the reperfusion was not required. After the surgery, the rats were allowed to lie prostrate and return to a cage.
(§4) When the animals were awake after modeling, behavioral scoring was performed on the animals with reference to a 4-point scoring standard of Zea longa. The animals with scores of 1-3 points were judged as successfully modeled animals, and the animals not meeting requirements were eliminated.
Method: SPF-grade male SD rats were used, the various tMCAO rat models were prepared by using the suture-occluded method, and the successfully modeled animals were randomly divided into 6 groups including a model control group, a test drug group 1, a test drug group 2, a test drug group 3, a test drug group 4 and a test drug group 5, with 6 or more animals in each group. In addition, the sham-operated control group was set, which involved 6 animals with the suture occlusions inserted and pulled out immediately in the surgery. At 4 h after the cerebral ischemia (at 4 h after the suture occlusions were pulled out in the sham-operated group), the various groups were given the various drugs or a vehicle for the first time. In each group, an administration dose was 3×10^−5 mol/kg, an administration volume was 3 mL/kg, administration was performed for a total of 3 times, and an administration time interval of every two times was 24 h. […]

[2] = system: rat models with focal cerebral ischemia-reperfusion (tMCAO); assay: Rotarod test (latent period of falling) in tMCAO model rats; settings: Gavage, 3 × 10^−5 mol/kg, 3 administrations, about 24 h after last administration, x ± s
Experimental: as §1, §2, §3, §4
(§5) Method: SPF-grade male SD rats were used, the various tMCAO rat models were prepared by using the suture-occluded method, and the successfully modeled animals were randomly divided into 6 groups including a model control group, a test drug group 1, a test drug group 2, a test drug group 3, a test drug group 4 and a test drug group 5, with 6 or more animals in each group. In addition, the sham-operated control group was set, which involved 6 animals with the suture occlusions inserted and pulled out immediately in the surgery. […]

[3] = system: rat models with focal cerebral ischemia-reperfusion (tMCAO); assay: Behavioral scoring of tMCAO model rats; settings: about 24 h after last administration, x ± s
Experimental: as §1, §2, §3, §4, §5

[4] = system: rat models with focal cerebral ischemia-reperfusion (tMCAO); assay: Percentage of cerebral infarction area (TTC staining) in tMCAO model rats; settings: Gavage, about 24 h after last administration, x ± s
Experimental: as §1, §2, §3, §4, §5

[5] = system: rat models with focal cerebral ischemia-reperfusion (tMCAO); assay: Drug efficacy test in tMCAO model rats, overall result; settings: latent period of falling, behavioral scores, infarction area, cerebral blood flow
Experimental: as §1
A specific modeling method for the rat models with focal cerebral ischemia-reperfusion (tMCAO) is as follows. At 12 h before surgery, the rats were fed at about 30 g/piece. After induced anesthesia with 3-4% isoflurane and maintained anesthesia with 1.5-2.5% isoflurane were performed, the rats were placed at supine positions on an operating table at a constant temperature of 37° C. The skin in middle lines of necks was cut, subcutaneous tissues and muscles were bluntly separated, and common carotid arteries on right sides, internal carotid arteries and external carotid arteries were separated. Two ligation threads were allowed to penetrate through the external carotid arteries to ligate distal ends, an artery clamp was placed at the common carotid arteries and the internal carotid arteries, respectively, small incisions were made at 45° diagonally on the external carotid arteries at about 4 mm away from bifurcations of the common carotid arteries, and suitable suture occlusions were inserted to gently ligate proximal ends. […]

Structure (SMILES) | Cerebral blood flow 24 h after last administration [1] | Cerebral blood flow improvement percentage [1] | Recovery percentage of cerebral blood flow 24 h after last administration [1] | Cerebral blood flow before administration [1] | Decrease percentage of cerebral blood flow before administration [1] | Cerebral blood flow before ischemia [1] | Latent period of falling (rotarod test) [2] | Behavioral score ([3]; route printed as Intravenous injection and Gavage, 3 × 10^−5 mol/kg) | Percentage of cerebral infarction area ([4]; 3 × 10^−5 mol/kg) | Behavioral score ([3]; Gavage, 3 × 10^−5 mol/kg) | Behavioral score ([3]; Gavage, 6 × 10^−5 mol/kg) | Overall therapeutic effect in tMCAO rats (in words; vs model control group and between test drug groups) [5] | Percentage of cerebral infarction area ([4]; 6 × 10^−5 mol/kg)
Cc1cc(OC(=O)c2cccnc2)n(-c2nc(C)c(C)nc2C)n1 [Test drug 1, 3-methyl-1-(3,5,6-trimethylpyrazin-2-yl)-1H-pyrazol-5-nicotinate] | 304.8 ± 12.7 BPU | 28.7 ± 4.9 % | 87.8 ± 2.0 % | 204.6 ± 10.3 BPU | 40.9 ± 5.2% | 347.5 ± 19.3 BPU | 48.7 ± 14.0 s | 1.9 ± 0.6 | 4.6 ± 1.2 % | – | – | – | –
CC(=O)Oc1cc(C)nn1-c1nc(C)c(C)nc1C [Test drug 2, 3-methyl-1-(3,5,6-trimethylpyrazin-2-yl)-1H-pyrazol-5-acetate] | 367.8 ± 36.9 BPU | 20.9 ± 13.8 % | 79.3 ± 8.9 % | 213.3 ± 16.6 BPU | 41.6 ± 8.6% | 371.8 ± 51.6 BPU | 35.2 ± 23.3 s | – | 5.8 ± 2.2 % | 2.3 ± 0.7 | – | – | –
CC(=O)Oc1ccccc1C(=O)Oc1cc(C)nn1-c1nc(C)c(C)nc1C [Test drug 3, 3-methyl-1-(3,5,6-trimethylpyrazin-2-yl)-1H-pyrazol-5-yl-2-acetoxybenzoate] | 321.4 ± 54.0 BPU | 30.3 ± 7.1 % | 90.1 ± 4.2**^&& % | 210.3 ± 15.1 BPU | 40.1 ± 6.3% | 356.5 ± 56.6 BPU | 49.7 ± 12.3 s | – | – | – | 1.6 ± 0.7 | better than the groups 2 and 5 | 3.5 ± 1.6**^& %
Cc1cc(OC(=O)c2ccccc2)n(-c2nc(C)c(C)nc2C)n1 [Test drug 4, 3-methyl-1-(3,5,6-trimethylpyrazin-2-yl)-1H-pyrazol-5-yl-benzoate] | 321.2 ± 17.0 BPU | 27.0 ± 7.3 % | 87.0 ± 5.8**^& % | 220.8 ± 16.4 BPU | 40.0 ± 7.1% | 370.2 ± 17.2 BPU | 43.8 ± 14.9 s | – | 4.5 ± 2.5 % | 1.7 ± 0.7 | – | better than the groups 2 and 5 | –
Cc1cc(OC(=O)C(C)(C)C)n(-c2nc(C)c(C)nc2C)n1 [Test drug 5, 3-methyl-1-(3,5,6-trimethylpyrazin-2-yl)-1H-pyrazol-5-pivalate] | 275.0 ± 20.5 BPU | 21.2 ± 4.7*^ % | 81.6 ± 5.9**^ % | 203.3 ± 8.1 BPU | 39.5 ± 4.4% | 337.9 ± 26.0 BPU | 31.5 ± 14.5^ s | – | – | – | 2.7 ± 0.9 | – | 2.9 ± 1.0 %
